Biological target: c-kit receptor (Homo sapiens, UniProt P10721)
Conditions: MDA-MB-361 cells, SCF ligand present, three-day culture, STI-571 1 μM to 40 μM, 50 μg total protein lysate, FIG. 4

Chain of c-kit receptor (P10721 26-976): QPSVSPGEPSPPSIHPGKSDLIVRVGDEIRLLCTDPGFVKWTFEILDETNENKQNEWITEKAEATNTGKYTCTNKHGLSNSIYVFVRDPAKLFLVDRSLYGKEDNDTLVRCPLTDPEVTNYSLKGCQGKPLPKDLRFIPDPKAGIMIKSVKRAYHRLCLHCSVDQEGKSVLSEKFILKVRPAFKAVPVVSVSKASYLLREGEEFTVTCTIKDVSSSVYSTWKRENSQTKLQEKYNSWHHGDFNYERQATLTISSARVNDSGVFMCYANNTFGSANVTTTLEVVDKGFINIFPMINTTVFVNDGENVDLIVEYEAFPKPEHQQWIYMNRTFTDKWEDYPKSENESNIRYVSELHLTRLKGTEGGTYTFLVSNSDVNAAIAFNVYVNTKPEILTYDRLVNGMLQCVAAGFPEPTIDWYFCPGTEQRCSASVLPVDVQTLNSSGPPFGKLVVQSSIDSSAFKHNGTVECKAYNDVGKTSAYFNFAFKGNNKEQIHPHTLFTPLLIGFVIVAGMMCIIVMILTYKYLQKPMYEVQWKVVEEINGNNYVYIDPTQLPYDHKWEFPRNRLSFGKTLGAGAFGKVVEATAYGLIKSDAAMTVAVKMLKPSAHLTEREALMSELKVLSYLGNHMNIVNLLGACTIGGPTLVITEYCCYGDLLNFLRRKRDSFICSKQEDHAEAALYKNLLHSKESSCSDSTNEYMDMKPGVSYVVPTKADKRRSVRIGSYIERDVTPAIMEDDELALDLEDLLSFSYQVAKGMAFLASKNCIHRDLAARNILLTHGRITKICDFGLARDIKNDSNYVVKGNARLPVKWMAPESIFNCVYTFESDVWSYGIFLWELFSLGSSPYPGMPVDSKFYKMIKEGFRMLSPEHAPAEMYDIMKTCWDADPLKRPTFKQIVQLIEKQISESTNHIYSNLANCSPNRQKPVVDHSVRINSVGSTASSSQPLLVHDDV

Cc1ccc(NC(=O)c2ccc(CN3CCN(C)CC3)cc2)cc1Nc1nccc(-c2cccnc2)n1 [STI-571]
STI-571 concentration at which SCF-induced c-kit activation is inhibited (no 145 kDa activated c-kit band): ≤ 1 µM

— US9625446B2, “Method and quantification assay for determining c-kit/SCF/pAKT status” (Ventana Medical Systems, Inc., priority 2001, dated 2017)
